Laboratory results published in patent US20130289083A1, “IDO Inhibitors” (priority 2007, published 2013).
Like-named read-outs stand apart in the source and are kept apart here.

Key:
human IDO = human IDO (Homo sapiens, UniProt P14902); assay: Cell based IDO/kynurenine assay in IDO-293-T-Rex cells; conditions: kynurenine production, read-out: hIDO EC50
Procedure: 293-T-REx™ cells (Invitrogen) constitutively express a tet operator binding repressor protein and are maintained in DMEM, 10% FBS, 1× Penicillin+Streptomycin, 2 mM L-glutamine, 5 μg/mL blasticidin at 37° C. with a 5% CO2 in air atmosphere and typically split prior to confluency. Cells were passed by splitting the culture 1/10—by removing media by aspiration, washing 1× with PBS, incubating with 0.25% trypsin/EDTA until the cells detach, disbursing the cells in fresh growth media, and plating at 1/10 dilutions in fresh growth media. For long term cryopreservation, cells are detached from the plate as described above, collected by centrifugation, resuspended in freeze medium (growth medium, 10% DMSO), stored in 1.8 mL cyropreservation vials (˜2−5×10^6 cells per vial), in liquid nitrogen vapor storage tanks.
IDOl-expressing 293-T-Rex™ cell lines were generated by stable transfection of plasmid pcDNA-tetO-IDO expressing human IDO or murine IDO under the control of the doxycycline-inducible CMV-tet promoter. Transfected cells were selected in DBZ medium (DMEM, 10% FBS, 1× Penicillin+Streptomycin, 2 mM L-glutamine, 5 μg/mL blasticidin and 25 μg/ml Zeocin) at 37° C. with a 5% CO2 in air atmosphere. Individual clones were isolated by limiting dilution cloning from these populations.
[…]. The cells incubated in Neutral medium serve as negative control of the assay. The cells incubated in Induction medium and without inhibitor serve as the positive control of the assay. The incubation is carried out for 16 h at 37° C. in a cell culture incubator. 200 μL of medium are transferred to U-bottom polypropylene 96-well plates containing 25 μL of 30% TCA, incubated 30 minutes at 60° C. and centrifuged at 3400 g for 5 minutes. 150 μL of the clear supernatant is transferred to a polystyrene 96-well plate containing 50 μL of 4% (w/v) of p-dimethylaminobenzaldehyde in acetic acid, incubated for 10 min. Kynurenine concentration is determined by measuring the absorbance at 480 nm.
The conditions of the assay were as described in the examples.

[1] = target: purified human IDO protein (Homo sapiens, UniProt P14902); assay: Enzymatic IDO assay (kynurenine production, absorbance 480 nm); conditions: enzymatic activity
Sequence of purified human IDO protein (P14902 whole entry P110S/E119G): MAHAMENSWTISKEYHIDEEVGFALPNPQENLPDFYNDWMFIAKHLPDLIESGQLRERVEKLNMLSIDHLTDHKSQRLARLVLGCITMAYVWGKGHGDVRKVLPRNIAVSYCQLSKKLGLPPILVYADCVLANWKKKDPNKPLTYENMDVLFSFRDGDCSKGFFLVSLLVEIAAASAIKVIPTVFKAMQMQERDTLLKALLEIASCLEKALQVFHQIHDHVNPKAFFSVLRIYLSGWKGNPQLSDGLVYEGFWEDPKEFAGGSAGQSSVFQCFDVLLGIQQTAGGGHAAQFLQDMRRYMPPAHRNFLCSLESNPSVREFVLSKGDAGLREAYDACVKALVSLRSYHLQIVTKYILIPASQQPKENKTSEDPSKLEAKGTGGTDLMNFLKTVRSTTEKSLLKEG

[2] = 293T cell line stably expressing human IDO, values reported in ranges
[3] = hIDO IC50, recombinant human IDO, values reported in ranges
[4] = read-out: hIDO IC50, recombinant human IDO, values reported in ranges
[5] = Table 15, 293T cells expressing human IDO
[6] = hIDO IC50, Table 15, recombinant human IDO

Sequence of human IDO (P14902 whole entry): as the sequence (P14902 whole entry P110S/E119G) above, with S110P, G119E counted along it

EC50 (human IDO; [2]) | IC50 [1, 3] | EC50 (human IDO; [5]) | IC50 [1, 6] | Structure (SMILES) | IC50 [1, 4]
20 to 100 µM | 20 to 100 µM | – | – | S=C(NCCC1CCc2ccccc2O1)SCc1ccc2ccccc2c1 (centres unmarked) [compound 63, naphthalen-2-ylmethyl 2-(chroman-2-yl)ethylcarbamodithioate] | –
100 to 1000 µM | 100 to 1000 µM | – | – | CSC(=S)NCCc1ccc(C)cc1C [compound 66, Methyl 2,4-dimethylphenethylcarbamodithioate] | –
1000 to 10000 µM | 100 to 1000 µM | – | – | CC(CC(=O)O)c1cccc([N+](=O)[O-])c1 (centres unmarked) [compound 282, 3-(3-nitrophenyl)butanoic acid] | –
20 to 100 µM | 100 to 1000 µM | – | – | Cc1ccc(C)c(C(C)CC(=O)O)c1 (centres unmarked) [compound 261, 3-(2,5-dimethylphenyl)butanoic acid] | –
20 to 100 µM | 100 to 1000 µM | – | – | Oc1ccccc1C(=S)NCc1ccccc1 [compound 656, N-Benzyl-2-hydroxybenzothioamide] | –
20 to 100 µM | 100 to 1000 µM | – | – | Cc1cc2ccccc2cc1CCSC(=S)NCCc1c[nH]c2ccccc12 [compound 47, 2-(3-methylnaphthalen-2-yl)ethyl 2-(1H-indol-3-yl)ethylcarbamodithioate] | –
20 to 100 µM | 100 to 1000 µM | – | – | CSC(=S)NC(C)(C)Cc1c[nH]c2ccccc12 [compound 28, Methyl 1-(1H-indol-3-yl)-2-methylpropan-2-ylcarbamodithioate] | –
– | – | < 10 µM | < 10 µM | CN(C)c1ccc(-c2ccc(Cl)cc2CON)cc1 [compound 1934, 2′-(aminooxymethyl)-4′-chloro-N,N-dimethylbiphenyl-4-amine] | –
20 to 100 µM | 20 to 100 µM | – | – | S=C(NCCc1c[nH]c2ccccc12)SCc1noc2ccccc12 [compound 52, Benzo[d]isoxazol-3-ylmethyl 2-(1H-indol-3-yl)ethylcarbamodithioate] | –
100 to 1000 µM | 100 to 1000 µM | – | – | CC(CSC(=S)NCCc1c[nH]c2ccccc12)c1ccccc1 (centres unmarked) [compound 6, 2-Phenylpropyl 2-(1H-indol-3-yl)ethylcarbamodithioate] | –
20 to 100 µM | 100 to 1000 µM | – | – | NC(CSC(=S)NCc1ccccc1)C(=O)O (centres unmarked) [compound 138, 2-amino-3-(benzylcarbamothioylthio)-propanoic acid] | –
< 20 µM | 20 to 100 µM | – | – | O=C1CSC(=S)N1Cc1ccccc1 [compound 79, 3-Benzyl-2-thioxothiazolidin-4-one] | –
100 to 1000 µM | 100 to 1000 µM | – | – | Nc1ccccc1NC(=O)CCCc1c[nH]c2ccccc12 [compound 588, N-(2-aminophenyl)-4-(1H-indol-3-yl)butanamide] | –
100 to 1000 µM | 100 to 1000 µM | – | – | COc1ccc(CCSC(=S)NCCc2c[nH]c3ccccc23)cc1 [compound 2, 4-Methoxyphenethyl 2-(1H-indol-3-yl)ethylcarbamodithioate] | –
20 to 100 µM | 100 to 1000 µM | – | – | S=C(NCCc1c[nH]c2ccccc12)SCCc1ccc2c(c1)OCCO2 [compound 53, 2-(2,3-Dihydrobenzo[b][1,4]dioxin-6-yl)ethyl 2-(1H-indol-3-yl)ethyl-carbamodithioate] | –
– | – | < 10 µM | < 10 µM | NOCc1cc(Cl)ccc1-c1cccs1 [compound 1931, O-(5-chloro-2-(thiophen-2-yl)benzyl)hydroxylamine] | –
100 to 1000 µM | 100 to 1000 µM | – | – | S=C(NCCc1c[nH]c2ccccc12)SCCc1cccc(Br)c1 [compound 7, 3-Bromophenethyl 2-(1H-indol-3-yl)ethylcarbamodithioate] | –
100 to 1000 µM | 100 to 1000 µM | – | – | Fc1ccc(CCSC(=S)NCCc2c[nH]c3ccccc23)cc1 [compound 3, 4-Fluorophenethyl 2-(1H-indol-3-yl)ethylcarbamodithioate] | –

EC50 (human IDO; [2]) | IC50 [1, 3] | EC50 (human IDO; [5]) | IC50 [1, 6] | Structure (SMILES) | IC50 [1, 4]
20 to 100 µM | 100 to 1000 µM | – | – | Oc1ccccc1C(=S)NCCc1c[nH]c2ccccc12 [compound 644, N-(2-(1H-indol-3-yl)ethyl)-2-hydroxybenzothioamide] | –
100 to 1000 µM | 100 to 1000 µM | – | – | S=C(NCCc1c[nH]c2ccccc12)SCCc1ccccc1Cl [compound 21, 2-Chlorophenethyl 2-(1H-indol-3-yl)ethylcarbamodithioate] | –
100 to 1000 µM | 100 to 1000 µM | – | – | Nc1ccccc1NC(=O)CCc1csc2ccccc12 [compound 739, N-(2-aminophenyl)-3-(benzo[b]thiophen-3-yl)propanamide] | –
20 to 100 µM | 100 to 1000 µM | – | – | Cc1ccc(CCSC(=S)NCCc2c[nH]c3ccccc23)cc1 [compound 9, 4-Methylphenethyl 2-(1H-indol-3-yl)ethylcarbamodithioate] | –
20 to 100 µM | 100 to 1000 µM | – | – | Oc1ccccc1C(=S)NCCc1csc2ccccc12 [compound 672, N-(2-(benzo[b]thiophen-3-yl)ethyl)-2-hydroxybenzothioamide] | –
– | – | < 10 µM | < 10 µM | COC(=O)c1ccc(-c2ccc(Cl)cc2CON)cc1 [compound 1935, methyl 2′-(aminooxymethyl)-4′-chlorobiphenyl-4-carboxylate] | –
– | – | < 10 µM | < 10 µM | NOC(COCc1ccccc1)c1ccccc1 (centres unmarked) [compound 1933, O-(2-(benzyloxy)-1-phenylethyl)hydroxylamine] | –
20 to 100 µM | 100 to 1000 µM | – | – | Cc1ccc2cc(CSC(=S)NCCc3c[nH]c4ccccc34)ccc2n1 [compound 38, (2-Methylquinolin-6-yl)methyl 2-(1H-indol-3-yl)ethylcarbamodithioate] | –
– | – | < 10 µM | < 10 µM | NOCc1cc(Cl)ccc1-c1ccsc1 [compound 1932, O-(5-chloro-2-(thiophen-3-yl)benzyl)hydroxylamine] | –
– | – | > 1000 µM | 10 to 100 µM | NCC(ON)c1ccccc1 (centres unmarked) [compound 1875, 2-(aminooxy)-2-phenylethanamine] | –
20 to 100 µM | 20 to 100 µM | – | – | Oc1ccccc1C(=S)NCc1ccc2ccccc2c1 [compound 607, 2-hydroxy-N-(naphthalen-2-ylmethyl)benzothioamide] | –
100 to 1000 µM | 20 to 100 µM | – | – | Nc1cc(S(=O)O)c2cccnc2c1O [compound 309, 7-amino-8-hydroxyquinoline-5-sulfinic acid] | –
– | – | < 10 µM | < 10 µM | NOC(CCC1CCCCC1)c1ccccc1 (centres unmarked) [compound 1938, O-(3-cyclohexyl-1-phenylpropyl)hydroxylamine] | –
< 20 µM | < 20 µM | – | – | NC(=O)C(=O)NNc1ccccc1 [compound 312, 2-oxo-2-(2-phenylhydrazinyl)acetamide] | –
20 to 100 µM | 100 to 1000 µM | – | – | Cc1c(O)c(=O)ccn1CCc1c[nH]c2ccccc12 [compound 552, 1-(2-(1H-indol-3-yl)ethyl)-3-hydroxy-2-methylpyridin-4(1H)-one] | –
20 to 100 µM | 100 to 1000 µM | – | – | O=C(Cc1csc(=S)[nH]1)NCc1c[nH]c2ccccc12 [compound 561, N-((1H-indol-3-yl)methyl)-2-(2-thioxo-2,3-dihydrothiazol-4-yl)acetamide] | –
20 to 100 µM | 100 to 1000 µM | – | – | S=C(NCCc1c[nH]c2ccccc12)SCCc1ccc(Br)cc1 [compound 4, 4-Bromophenethyl 2-(1H-indol-3-yl)ethylcarbamodithioate] | –
100 to 1000 µM | 100 to 1000 µM | – | – | Cn1[nH]c(=O)c(=O)nc1SCc1ccc2ccccc2c1 [compound 682, 2-Methyl-3-(naphthalen-2-ylmethylthio)-1,2-dihydro-1,2,4-triazine-5,6-dione] | –

Structure (SMILES) | EC50 (human IDO; [2]) | IC50 [1, 3] | EC50 (human IDO; [5]) | IC50 [1, 6] | IC50 [1, 4]
S=C(NC1CSc2ccccc2C1)SCc1ccc2ccccc2c1 (centres unmarked) [compound 64, naphhalen-2-ylmethyl thiochroman-3-ylcarbamodithioate] | 20 to 100 µM | – | – | – | 100 to 1000 µM
O=C1C=Cc2ccccc2C1=O [compound 167, naphthalene-1,2-dione] | 20 to 100 µM | < 20 µM | – | – | –
CSC(=S)NCCc1c[nH]c2c(Cl)cc(Cl)cc12 [compound 42] | 100 to 1000 µM | – | – | – | 100 to 1000 µM
S=C(NCCc1noc2ccccc12)SCc1ccc2ccccc2c1 [compound 58] | 20 to 100 µM | – | – | – | 100 to 1000 µM
CC(=O)N1C(=O)/C(=C2/SC(=S)NC2=O)c2ccccc21 [compound 149] | 20 to 100 µM | 100 to 1000 µM | – | – | –
S=C1NC(c2ccccc2)NC(c2ccccc2)S1 (centres unmarked) [compound 152, 4,6-diphenyl-1,3,5-thiadiazinane-2-thione] | 20 to 100 µM | 20 to 100 µM | – | – | –
Nc1ccc2[nH]cc(CCC(=O)O)c2c1 [compound 325, 3-(5-amino-1H-indol-3-yl)propanoic acid] | 1000 to 10000 µM | 100 to 1000 µM | – | – | –
